Consider 25 compounds from patent US4619932A, “Novel carbostyril derivatives, process for producing thereof and pharmaceutical composition containing the same” (Otsuka Pharmaceutical Co., Ltd., priority 1980, dated 1986).

Structures are written as SMILES. Where a name gives a salt, the structure may show the parent alone. Read-outs that look alike come from different tables or passages of the source.

The test system of data set [1] is jumping behavior induced by Methamphetamine and L-DOPA. The data set is described as follows: Activity for inhibiting jumping behavior in mouse induced by Methamphetamine and L-DOPA. Type of data set: in vivo, mouse (male, ddy-strain). The settings on record: read-out: ED50 value, inhibition of jumping behavior. The method, then:
(B) Activity for inhibiting jumping behavior in mouse induced by Methamphetamine and L-DOPA
Individual male mice of ddy-strain having a body weight of 17 to 25 g were used. The mice were not fed for 24 hours. One test group consisted of 6 mice. A compound to be tested was administered orally. 40Minutes after the administration 4 mg/kg of Methamphetamine d-N-α-dimethylphenthylamine was intraperitonerally administered, further 15 minutes after the administration of Methamphetamine, 400 mg/kg of L-DOPA was intraperitonerally administered. 60 Minutes after the administration of L-DOPA, (3-(3,4-dihydroxyphenyl)alanine) the mouse was placed in a glass beaker of 2 liters capacity, and the number of jumping of the mouse was recorded. The activity for inhibiting jumping behavior of the test compound was determined as positive in case of number of jumping performed by the administered mouse counted 10 or less. While, the activity for inhibiting jumping behabior of the test compound was determined as negative in case the number of jumping performed by the administered mouse recorded over 10. The effective dosage (ED50 value: mg/kg) of the test compound which gives 3 mice were positive over 6 mice of one test group was calculated. The number of jumping performed by the mouse being administered with physiological saline solution as the reference was 150 to 200 per hour. (Cf. H. Lal, F. C. Colpaert, P. Laduron: European J. Pharmacol., 30, 113-116 (1975)).

Data set [2] relates to epinephrine. The data set is described as follows: Activity for antagonizing epinephrine in mouse. Type of data set: in vivo, mouse (male, ddy strain). The following applies: read-out: ED50 value, dose allowing half the animals to survive. The method, then: (C) Activity for antagonizing epinephrine in mouse
Individual male mice of ddy strain having 17 to 20 g of body weight were used. The mice were abstained from eating for 24 hours. One test group consist of 10 mice. A compound to be tested was administered orally. One hour after the administration, 40 mg/kg of epinephrine was intraperitonerally administered. […] All of 10 mice administered physiological saline solution as the reference group were dead within a few minutes after the administration of epinephrine. (Cf. Loew, E. R. and Micetich, A., J. Pharmacol. Exp. Ther., 93, 434-443 (1948)).

For data set [3], the system named is Halothane anesthesia. The data set is described as follows: Halothane anesthesia increasing activity. It is filed as in vivo, mouse (male, ddy-strain). The settings on record: 16 mg/kg oral, 1 hour before 4% Halothane for 3 minutes; righting reflex. As to the method: Male mice of ddy-strain a having about 20 g body weight were used. One test group consists of 10 mice. An aqueous Gummi Arabicum suspension of test compound (80 mg of a compound to be tested and 1 g of Gummi Arabicum/100 ml of physiological NaCl solution) was administered orally to each mouse at the dosage of 16 mg of test compound/kg body. One hour after the administration, each mouse was placed in gas respiration chamber (13×13×24 cm) and oxygen gas containing 4% of Halothane (2-brome-2-chloro-1,1,1-trifluoroethane) was flown into the chamber at the velocity of 2/min for 3 minutes. A mouse anaesthetized was taken out from the chamber and the time between the introduction of anesthesia to waking was measured by righting reflex as the index. To mice of control group, 1% Gummi Arabicum aqueous physiological solution was orally administered at the dosage of 0.1 ml/kg body.

Data set [4] deals with palpebral ptosis. Nature of the data set: Palpebral ptosis test in mouse. Type of data set: in vivo, mouse (male, ddy-strain). The settings on record: 64 mg/kg oral, 1 hour; score 0 (wide open eyes) to 8 (eyes completely closed); mean of 10 mice. The method, then: (D) Activity of palpebral ptosis test in mouse
Individual male mice of ddy-strain having 18 to 20 g of body weight were used. The mice were abstained from eating for 24 hours. One test group consists of 10 mice. […] One hour after the administration, the state of palpebral ptosis of the mouse were observed and evaluated on the basis of the following score system. The mean value was calculated from the scores of 10 mice.
Score Degree of palpebral ptosis
8 Eyes completely closed.

Data set [5] deals with male rats. The following applies: rat, in vivo, po. The method, then: Each of the following compound of the general formula in the present invention was administered orally to male rats to determine the acute toxicity (LD50 mg/kg).
Where [6] appears, read: oral, Methamphetamine 4 mg/kg i.p. and L-DOPA 400 mg/kg i.p., positive = 10 or fewer jumps.
The mark [7] stands for this setting: oral, 1 hour before epinephrine 40 mg/kg i.p., survival at 24 hours.

The term ED50 denotes the midpoint of the dose-response relation. In the case of `CN(C)CCCN1c2ccccc2Sc2ccc(Cl)cc21` [Chlorpromazine, 2-chloro-N,N-dimethyl-10H-phenothiazine-10-propanamine, reference compound], the median effective dose (ED50) was 7.6 mg/kg in data set [1] (po) and 10.6 mg/kg in data set [2] (po, 24 h).
`CCC(C(=O)c1ccc2[nH]c(=O)ccc2c1)N1CCN(c2cccc(Cl)c2)CC1` (stereo not drawn) [Compound 4, 6-{1-Oxo-2-[4-(3-chlorophenyl)-1-piperazinyl]butyl}-carbostyril]: the “Time (minutes) between introduction of anesthesia to waking” value (“Time (minutes) between introduction” for short) in data set [3] amounted to 9.7 min. For the same compound, the 50% effective dose (ED50) in data set [1] (po) stood at 4.05 mg/kg. In addition, the “Score obtained (Mean value), degree of palpebral ptosis” value in data set [4] is recorded as 2.33.
Turning to `O=C1CCc2cc(C(O)CCCN3CCN(c4cccc(Cl)c4)CC3)ccc2N1` (stereo not drawn) [Compound 5, 6-{1-Hydroxy-4-[4-(3-chlorophenyl)-1-piperazinyl]butyl}-3,4-dihydrocarbostyril], the “Time (minutes) between introduction” value in data set [3] worked out at 13.0 min. The ED50 in data set [1] (setting [6]) was determined as 1.95 mg/kg. For the same compound, the “Acute toxicity (LD50)” value in data set [5] came to 500 mg/kg.
For `Cc1cccc(N2CCN(CCC(O)c3ccc4c(c3)CCC(=O)N4)CC2)c1C` (stereo not drawn) [Compound 6, 6-{1-Hydroxy-3-[4-(2,3-dimethylphenyl)-1-piperazinyl]-propyl}-3,4-dihydrocarbostryril], in data set [3], the “Time (minutes) between introduction” value turned out to be 8.2 min. In addition, the “Acute toxicity (LD50)” value in data set [5] worked out at 500 mg/kg.
Consider `O=C1CCc2cc(C(=O)CCN3CCN(c4cccc(Cl)c4)CC3)ccc2N1` [Compound 7, 6-{1-Oxo-3-[4-(3-chlorophenyl)-1-piperazinyl]-propyl}-3,4-dihydrocarbostyril.monohydrochloride], for which, in data set [1] (setting [6]), the ED50 was 1.34 mg/kg. The “Score obtained (Mean value), degree of palpebral ptosis” value in data set [4] came to 1.33. The “Acute toxicity (LD50)” value in data set [5] came out at 500 mg/kg.
Take `O=C1CCc2cc(C=CCN3CCN(c4cccc(Cl)c4)CC3)ccc2N1` [Compound 8, 6-{3-[4-(3-Chlorophenyl)-1-piperazinyl]-1-propenyl}-3,4-dihydrocarbostyril]: the ED50 in data set [1] (setting [6]) stood at 1.02 mg/kg. Besides, the “Acute toxicity (LD50)” value in data set [5] is listed as 500 mg/kg.
As for `CCOc1ccccc1N1CCN(CC=Cc2ccc3c(c2)CCC(=O)N3)CC1` [Compound 9, 6-{3-[4-(2-Ethoxyphenyl)-1-piperazinyl]-1-propenyl}-3,4-dihydrocarbostyril], the ED50 in data set [1] (setting [6]) amounted to 0.12 mg/kg; in data set [2] (setting [7]) it was 0.005 mg/kg. Besides, the “Acute toxicity (LD50)” value in data set [5] is 500 mg/kg.
Consider `Cc1cccc(N2CCN(CC=Cc3ccc4c(c3)CCC(=O)N4)CC2)c1` [Compound 10, 6-{3-[4-(3-Methylphenyl)-1-piperazinyl]-1-propenyl}-3,4-dihydrocarbostyril], for which, in data set [1] (setting [6]), the ED50 is 6.02 mg/kg. The “Acute toxicity (LD50)” value in data set [5] stood at 500 mg/kg.
Take `O=C1CCc2cc(C=CCCN3CCN(c4ccccc4)CC3)ccc2N1` [Compound 11, 6-[4-(4-Phenyl-1-piperazinyl)-1-butenyl]-3,4-dihydrocarbostyril]: the ED50 was 1.6 mg/kg in data set [1] (setting [6]) and 4 to 8 mg/kg in data set [2] (setting [7]). For the same compound, in data set [5], the “Acute toxicity (LD50)” value was found to be 500 mg/kg.
As to `CCOc1ccccc1N1CCN(CCC=Cc2ccc3c(c2)CCC(=O)N3)CC1` [Compound 12, 6-{4-[4-(2-Ethoxyphenyl)-1-piperazinyl]-1-butenyl}-3,4-dihydrocarbostyril], the figures for the ED50 in data set [1] (setting [6]) and in data set [2] (setting [7]) were 0.056 mg/kg and 0.005 mg/kg, respectively.
With `O=C1CCc2cc(C=CCN3CCN(c4ccc(Cl)cc4)CC3)ccc2N1` [Compound 13, 6-{3-[4-(4-chlorophenyl)-1-piperazinyl]-1-propenyl}-3,4-dihydrocarbostyril], the ED50 in data set [1] (setting [6]) is 4.16 mg/kg. In addition, the “Acute toxicity (LD50)” value in data set [5] was determined as 500 mg/kg.
As to `O=C1CCc2cc(CCCCN3CCN(c4ccccc4Cl)CC3)ccc2N1` [Compound 14, 6-{4-[4-(2-Chlorophenyl)-1-piperazinyl]-butyl}-3,4-dihydrocarbostyril], the ED50 in data set [1] (setting [6]) was 3.23 mg/kg.
Turning to `CCOc1ccccc1N1CCN(CCCCc2ccc3c(c2)CCC(=O)N3)CC1` [Compound 15, 6-{4-[4-(2-Ethoxyphenyl)-1-piperazinyl]-butyl}-3,4-dihydrocarbostyril], the ED50 in data set [1] (setting [6]) stood at 0.39 mg/kg; in data set [2] (setting [7]), 0.71 mg/kg. In addition, the “Acute toxicity (LD50)” value in data set [5] is 500 mg/kg.
For `CCOc1ccccc1N1CCN(CCCc2ccc3c(c2)CCC(=O)N3)CC1` [Compound 16, 6-{3-[4-(2-Ethoxyphenyl)-1-piperazinyl]-propyl}-3,4-dihydrocarbostyril] the same measures were 0.24 mg/kg, 0.02 mg/kg and 500 mg/kg.
As to `COc1ccccc1N1CCN(CCCc2ccc3c(c2)CCC(=O)N3)CC1` [Compound 17, 6-{3-[4-(2-Methoxyphenyl)-1-piperazinyl] -propyl}-3,4-dihydrocarbostyril], in data set [5], the “Acute toxicity (LD50)” value stood at 500 mg/kg. For the same compound, the median effective dose (ED50) in data set [2] (setting [7]) worked out at 0.29 mg/kg.
Take `O=C1CCc2cc(CCCN3CCN(c4ccccc4)CC3)ccc2N1` [Compound 18, 6-[3-(4-Phenyl-1-piperazinyl)propyl]-3,4-dihydrocarbostyril]: the ED50 in data set [1] (setting [6]) is 0.34 mg/kg; in data set [2] (setting [7]), 0.21 mg/kg. For the same compound, in data set [5], the “Acute toxicity (LD50)” value is given as 500 mg/kg.
For `COc1ccccc1N1CCN(CC=Cc2ccc3c(c2)CCC(=O)N3)CC1` [Compound 19], the ED50 in data set [1] (setting [6]) came out at 0.79 mg/kg; in data set [2] (setting [7]), 0.1 mg/kg. The “Acute toxicity (LD50)” value in data set [5] is reported as 500 mg/kg.
Take `O=C1CCc2cc(C(=O)CCCN3CC=C(c4ccc(Cl)cc4)CC3)ccc2N1` [Compound 25, 6-{1-Oxo-4-[4-(4-chlorophenyl)-1,2,5,6-tetrahydropyridyl]butyl}-3,4-dihydrocarbostiryl]: the ED50 in data set [1] (po) stood at 9.56 mg/kg.
The same measure, in the same setting: with `Cc1ccc(C2=CCN(CCC(=O)c3ccc4c(c3)CCC(=O)N4)CC2)cc1` [Compound 26, 6-{1-Oxo-3-[4-(4-methylphenyl)-1,2,5,6-tetrahydropyridyl]propyl}-3,4-dihydrocarbostiryl] the figure was 10.3 mg/kg; with `COc1ccccc1C1=CCN(CC=Cc2ccc3c(c2)CCC(=O)N3)CC1` [Compound 27, 6-{3-[4-(2-Methoxyphenyl)-1,2,5,6-tetrahydropyridyl]-1-propenyl}-3,4-dihydrocarbostyril monooxalate], 1.25 mg/kg; with `O=C1CCc2cc(C(=O)CCCN3CC=C(c4ccccc4)CC3)ccc2N1` [Compound 28, 6-[1-Oxo-4-(4-phenyl-1,2,5,6-tetrahydropyridyl)butyl]-3,4-dihydrocarbostyril], 8.89 mg/kg.
In the case of `COc1ccccc1C1CCN(CCCc2ccc3c(c2)CCC(=O)N3)CC1.O=C(O)C(=O)O` [Compound 29, 6-{3-[4-(2-Methoxyphenyl)-1-piperidyl]-propyl}-3,4-dihydrocarbostyril monooxalate], the ED50 in data set [1] (setting [6]) turned out to be 2.01 mg/kg.
`O=c1ccc2cc(CCCCN3CCN(c4ccccc4)CC3)ccc2[nH]1` [Compound 30, 6-[4-(4-Phenyl-1-piperazinyl)butyl]-carbostyril]: the ED50 in data set [1] (setting [6]) turned out to be 0.56 mg/kg. Further, the “Acute toxicity (LD50)” value in data set [5] is given as 500 mg/kg.
On to `CCOc1ccccc1N1CCN(CCC=Cc2ccc3[nH]c(=O)ccc3c2)CC1` [Compound 31, 6-{4-[4-(2-Ethoxyphenyl)-1-piperazinyl]-1-butenyl}carbostyril], for which the ED50 in data set [1] (setting [6]) turned out to be 0.14 mg/kg.
Same read-out and setting: with `CCC(C(O)c1ccc2[nH]c(=O)ccc2c1)N1CCN(c2cccc(Cl)c2)CC1` (stereo not drawn) [Compound 32, 6-{1-Hydroxy-2-[4-(3-chlorophenyl)-1-piperazinyl]butyl}carbostyril] the figure was 4.86 mg/kg.
